This passage reports IC50 and inhibition results from patent US11801249B1, “Broad-spectrum antitrypanosomal compounds” (KING FAISAL UNIVERSITY, priority 2023, dated 2023).

≈ marks a conversion by molar mass, not a printed value.

What all share (test): Antitrypanosomal assay (ATP-based luciferase viability)
What all share (type): cell-based

For assay [1], the system named is T. b. brucei (Tbb) GuTat3.1. Conditions: Trypanosoma brucei, TbbGUTat3.1, mean ± SD; for IC50: 72 h, three days; for inhibition at 0.25 µg/mL: 0.25 μg/ml; for inhibition at 0.25 µg/mL / inhibition at 25 µg/mL: read-out: Inhibition rate; for inhibition at 25 µg/mL: 25 μg/ml. An excerpt:
(§1) Six trypanosome species namely T. b. brucei (Tbb) GuTat3.1, T. b. rhodesiense (Tbr) IL1501, T. b. gambiense (Tbg) IL1922, T. evansi (Tev) Tansui, T. equiperdum (Teq) IVM-t1 and T. congolense (Tc) IL3000 were cultivated using HMI-9 medium and used in the study. Following the procedures reported in Suganuma et al. (2014): “Establishment of ATP-based luciferase viability assay in 96-well plate for Trypanosoma congolense”, J Vet Med Sci 76, 1437-41, the trypanocidal activity of the two compounds discussed herein was assessed at 25 μg/ml or […]. […] The IC50 of the compounds against six trypanosome species was determined using serial dilution in a 96-well plate (Optical bottom plate, ThermoFisher SCIENTIFIC, MA, USA). After three days, 25 μL of CellTiter-GIo Luminescent cell viability reagent (Promega Corporation, WI, USA) was aliquoted into each well and luminosity was measured with a GloMax plate reader (Promega Corporation, WI, USA).
(§2) At first, the compounds were assayed at high and low concentrations of […], respectively (Table 3).
(§3) Given the promising initial antitrypanosomal action of the compounds, the IC50 was measured in the presence of several concentrations of the compound.

The test system of assay [2] is T. b. gambiense (Tbg) IL1922. Conditions: Trypanosoma brucei, mean ± SD; for IC50: 72 h, TbgIL1922, three days; for inhibition at 0.25 µg/mL: TbgIL1922, 0.25 μg/ml; for inhibition at 0.25 µg/mL / inhibition at 25 µg/mL: read-out: Inhibition rate; for inhibition at 25 µg/mL: TbgIL1922, 25 μg/ml.
Text: as §1, §2, §3

Assay [3] has as its system T. b. rhodesiense (Tbr) IL1501. The settings on record: Trypanosoma brucei, mean ± SD; for IC50: 72 h, TbrIL1501, three days; for inhibition at 0.25 µg/mL: TbrIL1501, 0.25 μg/ml; for inhibition at 0.25 µg/mL / inhibition at 25 µg/mL: read-out: Inhibition rate; for inhibition at 25 µg/mL: TbrIL1501, 25 μg/ml.
Text: as §1, §2, §3

The test system of assay [4] is T. congolense (Tc) IL3000. Conditions: Trypanosoma congolense, TcIL3000, mean ± SD; for IC50: 72 h, three days; for inhibition at 0.25 µg/mL: 0.25 μg/ml; for inhibition at 0.25 µg/mL / inhibition at 25 µg/mL: read-out: Inhibition rate; for inhibition at 25 µg/mL: 25 μg/ml.
Text: as §1, §2, §3

Assay [5] relates to T. equiperdum (Teq) IVM-t1. The settings on record: Trypanosoma equiperdum, mean ± SD; for inhibition at 0.25 µg/mL: 0.25 μg/ml; for inhibition at 0.25 µg/mL / inhibition at 25 µg/mL: read-out: Inhibition rate; for inhibition at 25 µg/mL: 25 μg/ml; for IC50: 72 h, three days.
Text: as §1, §2, §3

The test system of another assay is T. evansi (Tev) Tansui. Conditions: Trypanosoma evansi, mean ± SD; for inhibition at 0.25 µg/mL: 0.25 μg/ml; for inhibition at 0.25 µg/mL / inhibition at 25 µg/mL: read-out: Inhibition rate; for inhibition at 25 µg/mL: 25 μg/ml; for IC50: 72 h, three days.
Text: as §1, §2, §3

As to `Fc1ccc(-c2cn[nH]c2C2CCCN(c3ncnc4[nH]ccc34)C2)cc1` (stereo not drawn) [Compound 1, 4-{3-[4-(4-fluorophenyl)-1H-pyrazol-5-yl]piperidin-1-yl}-7H-pyrrolo[2,3-d]pyrimidine], the IC50 (in general, the concentration that inhibits the measured activity by half) was 3.53 ± 0.67 µg/mL (≈ 9.74 µM) in assay [1]; 3.51 ± 0.9 µg/mL (≈ 9.69 µM) in assay [2]; 5.56 ± 0.13 µg/mL (≈ 15.3 µM) in assay [3]; 2.65 ± 0.47 µg/mL (≈ 7.31 µM) in assay [4]; 10.3 ± 0.36 µg/mL (≈ 28.4 µM) in assay [5]; 13.3 ± 3.36 µg/mL (≈ 36.8 µM) in the assay with T. evansi (Tev) Tansui. Also, the inhibition (usually how much of the control response was suppressed) at 0.25 µg/mL in assay [1] turned out to be 13.2 ± 4.07%; in assay [2] it was 2.82 ± 3.98%; in assay [3], 15.9 ± 11.1%; in assay [4], 8.85 ± 9.99%; in assay [5] it was 4.26 ± 6.01%; in the assay on T. evansi (Tev) Tansui it was 9.14 ± 6.02%. Moreover, the inhibition at 25 µg/mL in assay [1] came out at 99.38 ± 0.02%; in assay [2] it was 99.01 ± 0.01%; in assay [3], 99.34 ± 0.01%; in assay [4], 98.64 ± 0.16%; in assay [5], 99.22 ± 0.01%; in the assay on T. evansi (Tev) Tansui, 99.1 ± 0.46%.
For the compound `Fc1ccc(-c2cn[nH]c2C2CCCN(c3ncnc4[nH]cnc34)C2)cc1` (stereo not drawn) [Compound 2, 6-{3-[4-(4-fluorophenyl)-1H-pyrazol-5-yl]piperidin-1-yl}-9H-purine], the 50% inhibitory concentration (IC50) in assay [1] was 3.66 ± 0.77 µg/mL (≈ 10.1 µM); in assay [2] it was 3.11 ± 0.88 µg/mL (≈ 8.56 µM); in assay [3], 4.65 ± 0.25 µg/mL (≈ 12.8 µM); in assay [4], 2.77 ± 0.57 µg/mL (≈ 7.62 µM); in assay [5] it was 9.12 ± 0.8 µg/mL (≈ 25.1 µM); with T. evansi (Tev) Tansui, 9.26 ± 1.2 µg/mL (≈ 25.5 µM). The inhibition at 0.25 µg/mL came to 13.9 ± 3.11% in assay [1]; 1.82 ± 1.45% in assay [2]; 11.3 ± 6.63% in assay [3]; 8.09 ± 6.96% in assay [4]; 5.2 ± 4.11% in assay [5]; 6.14 ± 7.12% with T. evansi (Tev) Tansui. Moreover, the inhibition at 25 µg/mL came to 99.03 ± 0.02% in assay [1]; 98.21 ± 0.02% in assay [2]; 98.64 ± 0.02% in assay [3]; 98.01 ± 0.2% in assay [4]; 98.62 ± 0.05% in assay [5]; 98.7 ± 0.04% in the assay with T. evansi (Tev) Tansui.
